Each block holds one molecule with its values, some of them ahead of it.
Columns and labels:
EL4-GD2+ cells = assay: 3H-thymidine incorporation (proliferation) assay, EL4-GD2+ stimulator cells; assay type: cell-based, mouse; conditions: 25 μg/mL Mitomycin for 1 h
Description: (§1) EL4-GD2+ cells and control Jurkat cells were treated with 25 μg/mL Mitomycin (Sigma) for 1 h to arrest proliferation. After the cells were washed three times with media to remove Mitomycin, they were plated in 96-well plates at 2×10^5 cells/well. Single cell suspensions of splenocytes were obtained from twice immunized (as above) and from vehicle-injected control mice. Cells were separated following the protocol of the EasySep Negative Selection Mouse T-cell Enrichment Kit (Stemcell Technologies). […] The T-cells were plated at a ratio of 10:1 with Mitomycin-treated EL4 or Jurkat cells. As controls, cultures of T-cells alone (no stimulating tumor cells) or T-cells treated with Concanavalin A were used. After 5 days of culture, 0.1 μCi/well 3H-thymidine (Sigma-Aldrich) was added. DNA-incorporated 3H-thymidine was counted by liquid scintillation, and data are reported as average cpm ±SD. […] After 7 days, in vitro, cell viability was assessed by staining with 0.1% Trypan Blue, and cells were counted using a hemocytometer. Bright field images were acquired using an Olympus CKX41 microscope, mounted with an Infinity 1 digital camera and Infinity Analyze software (Lumenera Corporation).

Jurkat cells = assay: 3H-thymidine incorporation (proliferation) assay, Jurkat stimulator cells; assay type: cell-based; conditions: 25 μg/mL Mitomycin for 1 h
Description: as §1

T-cells = assay: 3H-thymidine incorporation of T-cells treated with Concanavalin A; assay type: cell-based, mouse; conditions: ConA stimulation; mean±SD
Description: as §1

Water solubility = assay type: physicochemical
Description: Carbohydrates were synthesized as previously described (Gilbert, M., et al. J Biol Chem. 277(1):327-337, 2002; Chiu, C. P., et al. Nat Struc Mol Bio. 11(2)163-170, 2004; and Blixt, O., Carbohydrate Research. 340(12):1963-1972, 2005) by modification of the process for phenylthio-GD2 in which the phenylthio moiety was substituted with a p-aminophenylether in the starting p-aminophenyl-β-D-lactopyranoside (AP-Lac, from Toronto Research Chemicals), that was subsequently used to enzymatically synthesize the respective ganglioside carbohydrate for conjugation to the dendrimer (see below). AP-GD2 and AP-GD3 were water soluble (>20 mg/ml). The measured molecular weights of AP-GD2 (1218 g/mol) and AP-GD3 (927 g/mol) corresponded to expected values. Structures were verified by 1D and 2D NMR spectroscopy and mass spectrometry (EI-MS). The AP-GD2 and AP-GD3 intermediates were purified to >99% purity by size-exclusion chromatography (Superdex 30 16 mm×85 cm column, GE Health Care) before their application in the synthesis of the tetrameric vaccines.

Molecule: CO[C@@]12[C@H](COC(N)=O)C3=C(C(=O)C(C)=C(N)C3=O)N1C[C@@H]1N[C@@H]12 [Mitomycin]
3H-thymidine incorporation of mitomycin-treated EL4-GD2+ cells (EL4-GD2+ cells): 188±4 cpm | 3H-thymidine incorporation of mitomycin-treated Jurkat cells (Jurkat cells): 107±5 cpm

Molecule: Concanavalin A [ConA]
3H-thymidine incorporation, T-cells from Tetra-GD2 vaccinated mice (T-cells): 19,834±309 cpm | 3H-thymidine incorporation, T-cells from naive mice (T-cells): 21,457±504 cpm

water solubility (in words) (Water solubility): water-soluble
Molecule: p-amino phenyl ether-GD2 [AP-GD2]

water solubility (in words) (Water solubility): water-soluble
Molecule: p-amino phenyl ether-GD3 [AP-GD3]

Reference: patent US11786586B2, “Carbohydrate structures and uses thereof” (AOA Dx, priority 2016, dated 2023)
